From PubChem BioAssay (NCI)
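Dose response: 5 concentrations. Exposure: 48 h. Format: 96-well plates. Endpoint: linear interpolation; highest concentration if not reached. Abbreviation: GI50, concentration required for 50% inhibition of growth. The concentration for full growth arrest is given as TGI.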

Key:
Test in all cases: DTP human tumour cell line panel, 48 h
[1] = test system: HCT-116 colon
[2] = test system: SN12C renal
[3] = test system: BT-549 breast
[4] = test system: MDA-MB-435
[5] = test system: SNB-75 CNS
[6] = test system: CCRF-CEM leukemia
[7] = test system: NCI-H23 lung
[8] = test system: PC-3 prostate
[9] = test system: OVCAR-3 ovarian
[10] = test system: TK-10 renal
[11] = test system: HOP-62 NSCLC
[12] = test system: M14 melanoma
[13] = test system: UO-31 renal
[14] = test system: T-47D breast
[15] = test system: SK-MEL-2 melanoma
[16] = test system: NCI-H226 lung
[17] = test system: K-562 leukemia
[18] = test system: SNB-19 CNS
[19] = test system: IGROV1 ovarian
[20] = test system: CAKI-1 renal
[21] = test system: DU-145 prostate
[22] = test system: SF-295 CNS
[23] = test system: HCC-2998 colon
[24] = test system: COLO 205 colon
[25] = test system: OVCAR-8 ovarian
[26] = test system: KM12 colon
[27] = test system: MALME-3M melanoma
[28] = test system: UACC-62 melanoma
[29] = test system: 786-0 renal
[30] = test system: EKVX NSCLC
[31] = test system: OVCAR-5 ovarian
[32] = test system: UACC-257 melanoma
[33] = test system: ACHN renal
[34] = test system: SW-620 colon
[35] = test system: A549 NSCLC
[36] = test system: SK-MEL-28 melanoma
[37] = test system: A498 renal
[38] = test system: HT29 colon
[39] = test system: LOX IMVI melanoma
[40] = test system: RXF 393 renal
[41] = test system: HOP-92 NSCLC
[42] = test system: MCF7 breast
[43] = test system: HL-60(TB) leukemia
[44] = test system: NCI/ADR-RES ovarian
[45] = test system: RPMI-8226 leukemia
[46] = test system: HS 578T breast
[47] = test system: SF-539 CNS
[48] = test system: SR leukemia
[49] = test system: SK-OV-3 ovarian
[50] = test system: NCI-H522 lung
[51] = test system: OVCAR-4 ovarian
[52] = test system: SK-MEL-5 melanoma
[53] = test system: HCT-15 colon
[54] = test system: MDA-MB-231 breast
[55] = test system: MOLT-4 leukemia
[56] = test system: SF-268 CNS

## O=c1[nH]cnc2c1ccn2C1OC(CO)C(O)C1O (configuration not stated)
[1]
  GI50: 2.29 µM
  TGI: 28.8 µM
[2]
  GI50: 3.6 µM
  TGI: > 100 µM
[3]
  GI50: 5.86 µM
  TGI: > 100 µM
[4]
  GI50: 9.35 µM
  TGI: > 100 µM
[5]
  GI50: 3.8 µM
  TGI: > 100 µM
[6]
  GI50: 4.74 µM
  TGI: 96 µM
[7]
  GI50: 6.01 µM
  TGI: 65.4 µM
[8]
  GI50: 3.35 µM
  TGI: > 100 µM
[9]
  GI50: 5.68 µM
  TGI: > 100 µM
[10]
  GI50: 3.64 µM
  TGI: 51.3 µM
[11]
  GI50: 6.7 µM
  TGI: > 100 µM
[12]
  GI50: 4.36 µM
  TGI: > 100 µM
[13]
  GI50: 2.11 µM
  TGI: 8.85 µM
[14]
  GI50: 2.49 µM
  TGI: 80 µM
[15]
  GI50: 3.04 µM
  TGI: 17.5 µM
[16]
  GI50: 16.1 µM
  TGI: > 100 µM
[17]
  GI50: 5.86 µM
  TGI: > 100 µM
[18]
  GI50: 14.8 µM
  TGI: > 100 µM
[19]
  GI50: 4.32 µM
  TGI: 35.1 µM
[20]
  GI50: 2.57 µM
  TGI: > 100 µM
[21]
  GI50: 2.34 µM
  TGI: 23.8 µM
[22]
  GI50: 8.6 µM
  TGI: > 100 µM
[23]
  GI50: 7.66 µM
  TGI: > 100 µM
[24]
  GI50: 3.41 µM
  TGI: 26.5 µM
[25]
  GI50: 2.3 µM
  TGI: 90.4 µM
[26]
  GI50: 8.89 µM
  TGI: > 100 µM
[27]
  GI50: 6.42 µM
  TGI: 32.8 µM
[28]
  GI50: 10.1 µM
  TGI: 27.8 µM
[29]
  GI50: 3.56 µM
  TGI: > 100 µM
[30]
  GI50: 17.8 µM
  TGI: > 100 µM
[31]
  GI50: 12 µM
  TGI: > 100 µM
[32]
  GI50: 12.3 µM
  TGI: 78 µM
[33]
  GI50: 2.51 µM
  TGI: > 100 µM
[34]
  GI50: 3.17 µM
  TGI: > 100 µM
[35]
  GI50: 7.53 µM
  TGI: > 100 µM
[36]
  GI50: 18.6 µM
  TGI: > 100 µM
[37]
  GI50: 4.72 µM
  TGI: 70.5 µM
[38]
  GI50: 5.73 µM
  TGI: > 100 µM
[39]
  GI50: 2.18 µM
  TGI: 16 µM
[40]
  GI50: 3.12 µM
  TGI: 22.9 µM
[41]
  GI50: 2 µM
  TGI: 15.5 µM
[42]
  GI50: 2.41 µM
  TGI: > 100 µM
[43]
  GI50: 3.88 µM
  TGI: 21.1 µM
[44]
  GI50: 3.2 µM
  TGI: > 100 µM
[45]
  GI50: 3.15 µM
  TGI: 21.5 µM
[46]
  GI50: 14 µM
  TGI: > 100 µM
[47]
  GI50: 10.7 µM
  TGI: > 100 µM
[48]
  GI50: 5.38 µM
  TGI: 49.3 µM
[49]
  GI50: 3.72 µM
  TGI: > 100 µM
[50]
  GI50: 7.32 µM
  TGI: 34.7 µM
[51]
  GI50: 1.48 µM
  TGI: 28.7 µM
[52]
  GI50: 6.1 µM
  TGI: 19.2 µM
[53]
  GI50: 4.1 µM
  TGI: > 100 µM
[54]
  GI50: 4.27 µM
  TGI: > 100 µM
[55]
  GI50: 4.38 µM
  TGI: 20.3 µM
[56]
  GI50: 11.7 µM
  TGI: > 100 µM
